pIC50: −log10 of the molar value. Where two headings read alike, the source gives them in different places.
How the values were obtained:
GP2D cell line = assay: Growth inhibition, CyQUANT Direct Cell Proliferation Assay, GP2D; type: cell-based
Procedure: (§1) SKCO1, LS180, and LS174T cell lines were purchased from ATCC. CW2 cell line was purchased from Riken. GP2D cell line was purchased from Sigma/ECACC. All cell lines were cultured in manufacturer's recommended media at 37° C., 5% CO2. Briefly, cells were suspended in 200 μL of media and seeded at 300 to 1,800 cells per well in tissue culture treated 96-well plates with black walls and clear bottom. Plates were incubated overnight and initial (To) read was performed the following day using CyQUANT Direct Cell Proliferation Assay Kit (Thermo Fisher Scientific) according to manufacturer's protocol. All compounds were solubilized in DMSO and prepared at 3-fold serial dilution, using 9 points starting at 30 μM as highest concentration, administered to cells and incubated for 120 to 168 hours, at which point CyQUANT assay measurement was performed using Acumen Cellista instrument (Ex/Em 480/520 nm). Media-only wells were used as blank, and 0.3% DMSO was used as DMSO-treated cell control. Growth inhibition (percent response) was calculated using the following formula in Excel: “=if ([Compound treated Day N]>[Untreated Day 0, AVG], ([Compound treated Day N]−[Untreated Day 0, AVG])/([Untreated Day N]−[Untreated Day 0, AVG])*100, ([Compound Treated Day N]−[Untreated Day 0, AVG])/([Untreated Day 0, AVG])*100)”. GI50 is the response corresponding to the 50% of untreated control.
(§2) GI50 data are reported in Tables 4a, 4b, 4c, 4d, and 4e for compounds in Table 1. In Tables 4a, 4b, 4c, 4d, and 4e below, According to the code, A represents a GI50 value of ≤0.1 μM, B represents a GI50 value>0.1 μM and ≤1 μM, C represents an GI50 value>1 μM.

CW2 cell line = assay: Growth inhibition, CyQUANT Direct Cell Proliferation Assay, CW2; type: cell-based; conditions: Homo sapiens
Procedure: as §1, §2

SKCO1 cell line = assay: Growth inhibition, CyQUANT Direct Cell Proliferation Assay, SKCO1; type: cell-based; conditions: Homo sapiens
Procedure: as §1, §2

CRBN/DDB1 = CRBN/DDB1 (Homo sapiens, UniProt Q96SW2); assay: HTRF binding assay (displacement of Cy5-thalidomide probe from CRBN/DDB1); conditions: CRBN/DDB1 2.5 nM, Cy5-Thalidomide 100 nM, 30 min; geometric mean; read-out: HTRF_Thali_Disp_DR_geo_IC50
Method in brief: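 HTRF displacement of Cy5-thalidomide (100 nM) from His-tagged CRBN/DDB1 (2.5 nM) with anti-His Tb cryptate in 20 mM HEPES, 20 mM NaCl, 0.2 mM TCEP, 0.2 mM EDTA, 0.005% Tween20. 10-point 1:3 series, 30 min ambient. 665/620 nm ratio fitted 4-parameter for IC50; Ki by Cheng-Prusoff from geometric-mean IC50.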

LS180 cell line = assay: Growth inhibition, CyQUANT Direct Cell Proliferation Assay, LS180; type: cell-based; conditions: Homo sapiens
Procedure: as §1, §2

CK1α = molecular target: T1, CK1α (Homo sapiens, UniProt P48729); assay: CK1α NanoBit Assay (HiBiT-tagged CSNK1A1, HEK293 clonal lines); type: cell-based; conditions: HEK293 HiBiT-CSNK1A1/LgBiT cells, 24 h incubation
T1 construct: HEK293 clonal lines with CRISPR KI HiBiT tag on CSNK1A1
Method in brief: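 HEK293 clones carrying a CRISPR knock-in HiBiT tag on CSNK1A1 and stably expressing LgBiT are treated with compound for 24 hours at 37° C, 5% CO2, then read by luminescence. Response is normalized as 100*(S−N)/(P−N) against plate negative and positive controls, and DC50 values are derived.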

LS174T cell line = assay: Growth inhibition, CyQUANT Direct Cell Proliferation Assay, LS174T; type: cell-based; conditions: Homo sapiens
Procedure: as §1, §2

[1] = GP2D, 120 to 168 hours, read-out: GP2D GI50
[2] = CW-2, CW2, 120 to 168 hours, read-out: CW2 GI50
[3] = SK-CO-1, SKCO1, 120 to 168 hours, read-out: SKCO1 GI50
[4] = LS180, 120 to 168 hours, read-out: LS180 GI50
[5] = 120 to 168 hours, read-out: LS174T GI50
[6] = SK-CO-1, read-out: SKCO1 GI50 (μM)
[7] = LS180, read-out: LS180 GI50 (μM)

T1 sequence (P48729 whole entry): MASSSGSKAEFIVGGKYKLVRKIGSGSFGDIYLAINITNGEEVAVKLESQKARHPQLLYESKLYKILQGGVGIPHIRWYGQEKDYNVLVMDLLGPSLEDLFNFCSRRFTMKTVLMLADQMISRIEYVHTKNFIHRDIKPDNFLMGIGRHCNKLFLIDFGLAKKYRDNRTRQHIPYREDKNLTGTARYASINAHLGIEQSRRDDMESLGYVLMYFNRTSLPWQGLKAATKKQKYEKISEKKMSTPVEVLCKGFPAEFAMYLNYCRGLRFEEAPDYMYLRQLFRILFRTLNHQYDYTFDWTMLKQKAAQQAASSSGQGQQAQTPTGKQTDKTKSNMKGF
T1 sequence (Q96SW2 whole entry, further chain): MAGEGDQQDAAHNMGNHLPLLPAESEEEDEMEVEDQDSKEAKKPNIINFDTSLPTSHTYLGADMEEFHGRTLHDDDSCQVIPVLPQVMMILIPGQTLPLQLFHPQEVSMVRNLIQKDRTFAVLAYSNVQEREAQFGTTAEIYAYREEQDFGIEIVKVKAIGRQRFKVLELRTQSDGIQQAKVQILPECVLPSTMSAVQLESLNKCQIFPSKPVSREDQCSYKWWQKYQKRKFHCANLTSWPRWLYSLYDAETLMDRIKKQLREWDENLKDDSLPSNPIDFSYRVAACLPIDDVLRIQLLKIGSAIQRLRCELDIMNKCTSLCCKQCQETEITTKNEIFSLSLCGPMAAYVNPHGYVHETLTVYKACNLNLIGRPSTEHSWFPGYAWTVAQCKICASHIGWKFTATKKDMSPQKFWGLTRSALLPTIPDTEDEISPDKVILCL
T1 sequence (Q16531 2-1140 partner limits assumed): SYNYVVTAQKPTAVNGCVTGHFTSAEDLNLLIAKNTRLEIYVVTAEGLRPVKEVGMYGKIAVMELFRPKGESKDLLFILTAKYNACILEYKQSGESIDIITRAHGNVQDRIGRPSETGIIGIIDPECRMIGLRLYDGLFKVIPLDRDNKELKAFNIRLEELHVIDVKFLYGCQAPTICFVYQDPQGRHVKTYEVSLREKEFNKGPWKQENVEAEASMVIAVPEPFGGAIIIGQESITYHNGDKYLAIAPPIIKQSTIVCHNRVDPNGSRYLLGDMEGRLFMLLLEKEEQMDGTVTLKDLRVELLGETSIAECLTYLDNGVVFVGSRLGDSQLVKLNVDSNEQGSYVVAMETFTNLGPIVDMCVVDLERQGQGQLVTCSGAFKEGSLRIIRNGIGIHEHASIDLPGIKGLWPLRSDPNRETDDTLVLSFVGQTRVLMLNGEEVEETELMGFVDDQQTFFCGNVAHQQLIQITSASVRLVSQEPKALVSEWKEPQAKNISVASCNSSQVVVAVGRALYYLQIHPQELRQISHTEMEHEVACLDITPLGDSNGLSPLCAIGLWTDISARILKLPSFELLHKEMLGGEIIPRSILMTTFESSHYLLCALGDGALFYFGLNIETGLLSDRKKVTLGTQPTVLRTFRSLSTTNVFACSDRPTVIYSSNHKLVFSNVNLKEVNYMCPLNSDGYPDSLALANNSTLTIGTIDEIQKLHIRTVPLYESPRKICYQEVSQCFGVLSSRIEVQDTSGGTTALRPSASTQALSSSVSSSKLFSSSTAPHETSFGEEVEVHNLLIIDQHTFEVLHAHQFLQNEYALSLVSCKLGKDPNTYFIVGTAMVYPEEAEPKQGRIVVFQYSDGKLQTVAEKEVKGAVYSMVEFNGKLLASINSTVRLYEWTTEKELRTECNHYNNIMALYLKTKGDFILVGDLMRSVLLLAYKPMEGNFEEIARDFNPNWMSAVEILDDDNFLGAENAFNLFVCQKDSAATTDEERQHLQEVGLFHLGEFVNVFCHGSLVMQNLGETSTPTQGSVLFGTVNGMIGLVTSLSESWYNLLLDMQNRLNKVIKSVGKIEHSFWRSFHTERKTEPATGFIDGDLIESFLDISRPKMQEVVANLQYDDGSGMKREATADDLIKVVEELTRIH
CRBN/DDB1, sequence (Q96SW2 whole entry, species assumed): as the sequence (Q96SW2 whole entry, further chain) above
CRBN/DDB1, sequence (Q16531 whole entry partner, species assumed): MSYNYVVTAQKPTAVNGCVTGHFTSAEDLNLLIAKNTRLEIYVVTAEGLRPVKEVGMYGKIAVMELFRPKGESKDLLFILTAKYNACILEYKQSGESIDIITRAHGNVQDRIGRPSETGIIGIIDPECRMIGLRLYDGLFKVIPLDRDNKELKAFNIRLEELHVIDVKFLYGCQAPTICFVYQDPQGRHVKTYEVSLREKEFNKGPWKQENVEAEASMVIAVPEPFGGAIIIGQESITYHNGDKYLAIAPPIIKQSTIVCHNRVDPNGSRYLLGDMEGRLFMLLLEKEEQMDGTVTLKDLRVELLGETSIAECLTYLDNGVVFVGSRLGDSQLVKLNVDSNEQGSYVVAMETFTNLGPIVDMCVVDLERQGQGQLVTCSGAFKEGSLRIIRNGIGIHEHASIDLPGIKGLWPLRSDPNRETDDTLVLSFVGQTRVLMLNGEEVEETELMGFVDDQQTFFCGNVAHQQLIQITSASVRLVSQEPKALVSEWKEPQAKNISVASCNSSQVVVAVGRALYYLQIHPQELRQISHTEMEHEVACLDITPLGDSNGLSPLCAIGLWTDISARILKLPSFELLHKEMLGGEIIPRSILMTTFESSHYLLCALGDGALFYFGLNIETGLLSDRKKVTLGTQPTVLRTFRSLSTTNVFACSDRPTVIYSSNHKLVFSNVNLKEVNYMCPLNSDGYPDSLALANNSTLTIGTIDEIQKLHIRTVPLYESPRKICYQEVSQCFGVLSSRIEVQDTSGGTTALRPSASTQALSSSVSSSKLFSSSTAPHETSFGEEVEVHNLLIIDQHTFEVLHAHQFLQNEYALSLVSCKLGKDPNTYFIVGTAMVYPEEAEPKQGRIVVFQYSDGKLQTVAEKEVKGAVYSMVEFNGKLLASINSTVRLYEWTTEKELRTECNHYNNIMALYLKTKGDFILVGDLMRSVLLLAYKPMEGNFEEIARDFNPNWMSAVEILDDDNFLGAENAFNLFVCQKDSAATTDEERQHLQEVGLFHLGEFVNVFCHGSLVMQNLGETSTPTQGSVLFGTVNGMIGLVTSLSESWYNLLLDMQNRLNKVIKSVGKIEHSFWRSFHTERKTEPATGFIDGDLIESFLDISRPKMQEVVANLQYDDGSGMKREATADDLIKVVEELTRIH

COC[C@H]1CN(C(=O)Nc2ccc3c(c2)CN(C2CCC(=O)NC2=O)C3=O)c2ccccc21 (stereo partly drawn) [Compound 338, (3R)—N-(2-(2,6-dioxopiperidin-3-yl)-1-oxoisoindolin-5-yl)-3-(methoxymethyl)indoline-1-carboxamide]
GI50 (GP2D cell line; [1]): < 0.1 µM
GI50 (CW2 cell line; [2]): 0.1 to 1 µM
GI50 (SKCO1 cell line; [3]): < 0.1 µM
pIC50 (CRBN/DDB1): 6.00 to 7.00
GI50 (LS180 cell line; [4]): < 0.1 µM
DC50 (CK1α): < 0.1 µM
GI50 (LS174T cell line; [5]): < 0.1 µM

O=C1CCC(N2Cc3cc(NC(=O)N4CCc5cc(C6CCC6)ccc54)ccc3C2=O)C(=O)N1 (centres unmarked) [Compound 357, 5-cyclobutyl-N-(2-(2,6-dioxopiperidin-3-yl)-1-oxoisoindolin-5-yl)indoline-1-carboxamide]
GI50 (GP2D cell line; GP2d, read-out: GP2D GI50 (μM)): < 0.1 µM
GI50 (CW2 cell line; CW-2, read-out: CW2 GI50 (μM)): < 0.1 µM
GI50 (SKCO1 cell line; [6]): < 0.1 µM
pIC50 (CRBN/DDB1): < 6.00
GI50 (LS180 cell line; [7]): 0.1 to 1 µM
DC50 (CK1α): < 0.1 µM
GI50 (LS174T cell line; read-out: LS174T GI50 (μM)): < 0.1 µM

CC1Cc2ccccc2CN1C(=O)Nc1ccc2c(c1)CN(C1CCC(=O)NC1=O)C2=O (centres unmarked) [Compound 205, N-(2-(2,6-dioxopiperidin-3-yl)-1-oxoisoindolin-5-yl)-3-methyl-3,4-dihydroisoquinoline-2(1H)-carboxamide]
GI50 (GP2D cell line; GP2d, read-out: GP2D GI50 (μM)): < 0.1 µM
GI50 (CW2 cell line; CW-2, read-out: CW2 GI50 (μM)): < 0.1 µM
GI50 (SKCO1 cell line; [6]): < 0.1 µM
pIC50 (CRBN/DDB1): 6.00 to 7.00
GI50 (LS180 cell line; [7]): 0.1 to 1 µM
DC50 (CK1α): < 0.1 µM
GI50 (LS174T cell line; read-out: LS174T GI50 (μM)): 0.1 to 1 µM

O=C1CCC(N2Cc3cc(NC(=O)N4CCc5c(F)cccc54)ccc3C2=O)C(=O)N1 (centres unmarked) [Compound 201, N-(2-(2,6-dioxopiperidin-3-yl)-1-oxoisoindolin-5-yl)-4-fluoroindoline-1-carboxamide]
GI50 (GP2D cell line; [1]): < 0.1 µM
GI50 (CW2 cell line; [2]): < 0.1 µM
GI50 (SKCO1 cell line; [3]): < 0.1 µM
pIC50 (CRBN/DDB1): < 6.00
GI50 (LS180 cell line; [4]): 0.1 to 1 µM
DC50 (CK1α): < 0.1 µM
GI50 (LS174T cell line; [5]): < 0.1 µM

O=C1CCC(N2Cc3cc(NC(=O)N4C[C@H](C5CC5)C[C@@H]4C4CC4)ccc3C2=O)C(=O)N1 (some centres unmarked) [Compound 256]
GI50 (GP2D cell line; [1]): 0.1 to 1 µM
GI50 (CW2 cell line; [2]): < 0.1 µM
GI50 (SKCO1 cell line; [3]): < 0.1 µM
pIC50 (CRBN/DDB1): 6.00 to 7.00
GI50 (LS180 cell line; [4]): 0.1 to 1 µM
DC50 (CK1α): < 0.1 µM
GI50 (LS174T cell line; [5]): < 0.1 µM

CN1CCN(c2ccc3c(c2)CCN3C(=O)Nc2ccc3c(c2)CN(C2CCC(=O)NC2=O)C3=O)CC1 (centres unmarked) [Compound 351, N-(2-(2,6-dioxopiperidin-3-yl)-1-oxoisoindolin-5-yl)-5-(4-methylpiperazin-1-yl)indoline-1-carboxamide]
pIC50 (CRBN/DDB1): 6.00 to 7.00
DC50 (CK1α): 0.1 to 1 µM

COCC1c2ccc(C(F)F)cc2CN1C(=O)Nc1ccc2c(c1)CN(C1CCC(=O)NC1=O)C2=O (centres unmarked) [Compound 299, 5-(difluoromethyl)-N-(2-(2,6-dioxopiperidin-3-yl)-1-oxoisoindolin-5-yl)-1-(methoxymethyl)isoindoline-2-carboxamide]
pIC50 (CRBN/DDB1): 6.00 to 7.00
DC50 (CK1α): < 0.1 µM

O=C1CCC(N2Cc3cc(NC(=O)N4c5ccccc5CC4C(F)(F)F)ccc3C2=O)C(=O)N1 (centres unmarked) [Compound 292, N-(2-(2,6-dioxopiperidin-3-yl)-1-oxoisoindolin-5-yl)-2-(trifluoromethyl)indoline-1-carboxamide]
pIC50 (CRBN/DDB1): 6.00 to 7.00
DC50 (CK1α): < 0.1 µM

O=C1CCC(N2Cc3cc(NC(=O)N4CCc5cc(-n6cccn6)ccc54)ccc3C2=O)C(=O)N1 (centres unmarked) [Compound 355]
pIC50 (CRBN/DDB1): > 7.00
DC50 (CK1α): < 0.1 µM

O=C1CCC(N2Cc3cc(NC(=O)N4CCc5cc(C6CCOCC6)ccc54)ccc3C2=O)C(=O)N1 (centres unmarked) [Compound 349, N-(2-(2,6-dioxopiperidin-3-yl)-1-oxoisoindolin-5-yl)-5-(tetrahydro-2H-pyran-4-yl)indoline-1-carboxamide]
pIC50 (CRBN/DDB1): 6.00 to 7.00
DC50 (CK1α): < 0.1 µM

NC[C@@H]1Cc2ccccc2N1C(=O)Nc1ccc2c(c1)CN(C1CCC(=O)NC1=O)C2=O (stereo partly drawn) [Compound 310, (2S)-2-(aminomethyl)-N-(2-(2,6-dioxopiperidin-3-yl)-1-oxoisoindolin-5-yl)indoline-1-carboxamide]
pIC50 (CRBN/DDB1): 6.00 to 7.00
DC50 (CK1α): 0.1 to 1 µM

CN1CCN(C(=O)Nc2ccc3c(c2)CN(C2CCC(=O)NC2=O)C3=O)c2ccccc21 (centres unmarked) [Compound 286]
pIC50 (CRBN/DDB1): 6.00 to 7.00
DC50 (CK1α): 0.1 to 1 µM

CC1(C)Cc2ccccc2N1C(=O)Nc1ccc2c(c1)CN(C1CCC(=O)NC1=O)C2=O (centres unmarked) [Compound 132]
pIC50 (CRBN/DDB1): 6.00 to 7.00
DC50 (CK1α): < 0.1 µM

N#Cc1ccc2c(c1)N(C(=O)Nc1ccc3c(c1)CN(C1CCC(=O)NC1=O)C3=O)CC2 (centres unmarked) [Compound 115, 6-cyano-N-(2-(2,6-dioxopiperidin-3-yl)-1-oxoisoindolin-5-yl)indoline-1-carboxamide]
pIC50 (CRBN/DDB1): 6.00 to 7.00
DC50 (CK1α): < 0.1 µM

O=C1CCC(N2Cc3cc(NC(=O)N4CCc5ccc(C6CCC6)cc54)ccc3C2=O)C(=O)N1 (centres unmarked) [Compound 358, 6-cyclobutyl-N-(2-(2,6-dioxopiperidin-3-yl)-1-oxoisoindolin-5-yl)indoline-1-carboxamide]
pIC50 (CRBN/DDB1): 6.00 to 7.00
DC50 (CK1α): < 0.1 µM

COC[C@@H]1CN(C(=O)Nc2ccc3c(c2)CN(C2CCC(=O)NC2=O)C3=O)c2ccccc21 (stereo partly drawn) [Compound 328, (3S)—N-(2-(2,6-dioxopiperidin-3-yl)-1-oxoisoindolin-5-yl)-3-(methoxymethyl)indoline-1-carboxamide]
pIC50 (CRBN/DDB1): 6.00 to 7.00
DC50 (CK1α): < 0.1 µM

COC[C@@H]1Cc2cc(C(F)(F)F)ccc2N1C(=O)Nc1ccc2c(c1)CN(C1CCC(=O)NC1=O)C2=O (stereo partly drawn) [Compound 318, (2S)—N-(2-(2,6-dioxopiperidin-3-yl)-1-oxoisoindolin-5-yl)-2-(methoxymethyl)-5-(trifluoromethyl)indoline-1-carboxamide]
pIC50 (CRBN/DDB1): 6.00 to 7.00
DC50 (CK1α): < 0.1 µM

CNC[C@@H]1Cc2ccccc2N1C(=O)Nc1ccc2c(c1)CN(C1CCC(=O)NC1=O)C2=O (stereo partly drawn) [Compound 312, (2S)—N-(2-(2,6-dioxopiperidin-3-yl)-1-oxoisoindolin-5-yl)-2-((methylamino)methyl)indoline-1-carboxamide]
pIC50 (CRBN/DDB1): 6.00 to 7.00
DC50 (CK1α): 0.1 to 1 µM

O=C1CCC(N2Cc3cc(NC(=O)N4CCc5c(C6COC6)cccc54)ccc3C2=O)C(=O)N1 (centres unmarked) [Compound 342, N-(2-(2,6-dioxopiperidin-3-yl)-1-oxoisoindolin-5-yl)-4-(oxetan-3-yl)indoline-1-carboxamide]
pIC50 (CRBN/DDB1): 6.00 to 7.00
DC50 (CK1α): < 0.1 µM

O=C1CCC(N2Cc3cc(NC(=O)N4CCc5cc(Cl)ccc54)ccc3C2=O)C(=O)N1 (centres unmarked) [Compound 197, 5-chloro-N-(2-(2,6-dioxopiperidin-3-yl)-1-oxoisoindolin-5-yl)indoline-1-carboxamide]
pIC50 (CRBN/DDB1): < 6.00
DC50 (CK1α): < 0.1 µM
